This passage reports IC50 results from US9321760B2 (Merck Patent GmbH, priority 2011, dated 2016).

The target of the test is P70S6K (T412E mutant) (Homo sapiens (Human), UniProt P23443, T412E). The test can be described thus: P70S6K enzyme assay. It counts as biochemical. Particulars: 3 nM P70S6K T412E mutant, 24 μM ATP, 1 μM FITC-AHA-AKRRRLSSLRA-OH substrate peptide, 90 min at 25° C. The gist of the method:
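IC50s come from mobility-shift separation of phospho-product from FITC-AHA-AKRRRLSSLRA-OH substrate (1 μM) after the reaction was quenched with 10 mM EDTA. The reaction used 3 nM T412E-mutant enzyme and 24 μM ATP, running 90 min at 25° C in 100 mM Hepes pH 7.5 buffer.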

SMILES strings stand for the structures.

Chain of P70S6K (T412E mutant) (P23443 whole entry T412E): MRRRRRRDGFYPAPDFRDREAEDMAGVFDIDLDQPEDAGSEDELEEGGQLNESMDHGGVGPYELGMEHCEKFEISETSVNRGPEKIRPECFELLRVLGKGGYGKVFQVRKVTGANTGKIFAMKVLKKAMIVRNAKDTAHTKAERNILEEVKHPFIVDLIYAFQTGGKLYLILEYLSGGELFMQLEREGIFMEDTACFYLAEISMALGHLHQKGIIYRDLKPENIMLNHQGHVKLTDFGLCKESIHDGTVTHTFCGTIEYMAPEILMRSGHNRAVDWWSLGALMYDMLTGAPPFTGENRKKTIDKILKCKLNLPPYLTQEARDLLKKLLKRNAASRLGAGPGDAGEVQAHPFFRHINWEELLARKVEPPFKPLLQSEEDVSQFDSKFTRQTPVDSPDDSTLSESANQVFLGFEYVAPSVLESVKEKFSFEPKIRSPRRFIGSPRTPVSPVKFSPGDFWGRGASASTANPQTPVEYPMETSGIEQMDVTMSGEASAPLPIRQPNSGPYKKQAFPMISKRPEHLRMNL

Molecule `Cc1cc(C(CN2CCC2)N2CCN(c3ncnc(N)c3-c3cn[nH]c3)CC2)ccc1Cl` (stereo not shown) [Example 109, 6-{4-[2-Azetidin-1-yl-1-(4-chloro-3-methyl-phenyl)-ethyl]-piperazin-1-yl}-5-(1H-pyrazol-4-yl)-pyrimidin-4-ylamine] registered an IC50 of 1900 nM.

`COC(=O)c1ccc([C@@H](CN2CCC2)N2CCN(c3ncnc(N)c3-c3ccc(F)cc3)CC2)cc1` [Example 110, 4-((S)-1-{4-[6-Amino-5-(4-fluoro-phenyl)-pyrimidin-4-yl]-piperazin-1-yl}-2-azetidin-1-yl-ethyl)-benzoic acid methyl ester]: the 50% inhibitory concentration (IC50) came to 450 nM.

`COC(=O)c1ccc([C@H](CN2CCC2)N2CCN(c3ncnc(N)c3-c3ccc(F)cc3)CC2)cc1` [Example 111, 4-((R)-1-{4-[6-Amino-5-(4-fluoro-phenyl)-pyrimidin-4-yl]-piperazin-1-yl}-2-azetidin-1-yl-ethyl)-benzoic acid methyl ester] showed a half-inhibitory concentration (IC50) of 190 nM.

As to `Nc1ncnc(N2CCN(C(CCN3CCC3)c3ccc(Cl)cc3)CC2)c1-c1ccc(F)cc1` (stereo not shown) [Example 112, 6-{4-[3-Azetidin-1-yl-1-(4-chloro-phenyl)-propyl]-piperazin-1-yl}-5-(4-fluoro-phenyl)-pyrimidin-4-ylamine], the concentration for half-maximal inhibition (IC50) came out at 460 nM.

`Nc1ncnc(N2CCN(C(CCCN3CCC3)c3ccc(Cl)cc3)CC2)c1-c1ccc(F)cc1` (stereo not shown) [Example 113, 6-{4-[4-Azetidin-1-yl-1-(4-chloro-phenyl)-butyl]-piperazin-1-yl}-5-(4-fluoro-phenyl)-pyrimidin-4-ylamine]: the concentration for half-maximal inhibition (IC50) is above 1000 nM.

Consider `Nc1ncnc(N2CCN(C(CN3CCC3)c3ccc(F)c(OC(F)(F)F)c3)CC2)c1-c1cn[nH]c1` (stereo not shown) [Example 114, 6-{4-[2-Azetidin-1-yl-1-(4-fluoro-3-trifluoromethoxy-phenyl)-ethyl]-piperazin-1-yl}-5-(1H-pyrazol-4-yl)-pyrimidin-4-ylamine], for which the IC50 came to 3300 nM.

Molecule `Nc1ncnc(N2CCN(C(CN3CCC3)c3ccc4c(c3)CCCC4)CC2)c1-c1ccc(N2CCNCC2)nc1` (stereo not shown) [Example 115, 6-{4-[2-Azetidin-1-yl-1-(5,6,7,8-tetrahydro-naphthalen-2-yl)-ethyl]-piperazin-1-yl}-5-(6-piperazin-1-yl-pyridin-3-yl)-pyrimidin-4-ylamine] yielded an IC50 above 100000 nM.

In the case of `Nc1ncnc(N2CCN(C(CN3CCC3)c3ccc(-n4ccnc4)cc3)CC2)c1-c1ccc(F)cc1` (stereo not shown) [Example 116, 6-{4-[2-Azetidin-1-yl-1-(4-imidazol-1-yl-phenyl)-ethyl]-piperazin-1-yl}-5-(4-fluoro-phenyl)-pyrimidin-4-ylamine], the IC50 was found to be 290 nM.

`CCOC(=O)Cn1cc(-c2c(N)ncnc2N2CCN(C(CN3CCC3)c3ccc(Cl)c(Cl)c3)CC2)cn1` (stereo not shown) [Example 117, [4-(4-Amino-6-{4-[2-azetidin-1-yl-1-(3,4-dichloro-phenyl)-ethyl]-piperazin-1-yl}-pyrimidin-5-yl)-pyrazol-1-yl]-acetic acid ethyl ester] displayed a half-inhibitory concentration (IC50) of 24000 nM.

`Nc1ncnc(N2CCN(C(CN3CCC3)c3ccc4[nH]c(=O)sc4c3)CC2)c1-c1ccc(F)cc1` (stereo not shown) [Example 118, 6-(1-{4-[6-Amino-5-(4-fluoro-phenyl)-pyrimidin-4-yl]-piperazin-1-yl}-2-azetidin-1-yl-ethyl)-3H-benzothiazol-2-one] came in with a concentration for half-maximal inhibition (IC50) of 140 nM.

Molecule `CCOC(=O)Cn1cc(-c2c(N)ncnc2N2CCN(C(CN3CCC3)c3ccc4c(c3)CCCC4)CC2)cn1` (stereo not shown) [Example 119, [4-(4-Amino-6-{4-[2-azetidin-1-yl-1-(5,6,7,8-tetrahydro-naphthalen-2-yl)-ethyl]-piperazin-1-yl}-pyrimidin-5-yl)-pyrazol-1-yl]-acetic acid ethyl ester] gave a half-inhibitory concentration (IC50) of 22000 nM.

In turn, `Nc1ncnc(N2CCN(C(CN3CCC3)c3ccc(C(F)(F)F)cc3F)CC2)c1-c1cn[nH]c1` (stereo not shown) [Example 120, 6-{4-[2-Azetidin-1-yl-1-(2-fluoro-4-trifluoromethyl-phenyl)-ethyl]-piperazin-1-yl}-5-(1H-pyrazol-4-yl)-pyrimidin-4-ylamine] gave a half-maximal inhibitory concentration (IC50) of 1100 nM.

For `Nc1ncnc(N2CCN(C(CN3CCC3)c3ccc(Cl)c(F)c3)CC2)c1-c1cn[nH]c1` (stereo not shown) [Example 121, 6-{4-[2-Azetidin-1-yl-1-(4-chloro-3-fluoro-phenyl)-ethyl]-piperazin-1-yl}-5-(1H-pyrazol-4-yl)-pyrimidin-4-ylamine], the IC50 turned out to be 900 nM.

The molecule `Nc1ncnc(N2CCN(C(CN3CCC3)c3ccc4c(c3)CCCC4)CC2)c1-c1cn[nH]c1` (stereo not shown) [Example 122, 6-{4-[2-Azetidin-1-yl-1-(5,6,7,8-tetrahydro-naphthalen-2-yl)-ethyl]-piperazin-1-yl}-5-(1H-pyrazol-4-yl)-pyrimidin-4-ylamine] showed an IC50 of 950 nM.

Take `Nc1ncnc(N2CCN(C(CN3CCC3)c3ccc4c(c3)CCCC4)CC2)c1-c1ccc(F)cc1` (stereo not shown) [Example 123, 6-{4-[2-Azetidin-1-yl-1-(5,6,7,8-tetrahydro-naphthalen-2-yl)-ethyl]-piperazin-1-yl}-5-(4-fluoro-phenyl)-pyrimidin-4-ylamine]: 360 nM corresponded to half-maximal inhibition (IC50).

The molecule `Nc1ncnc(N2CCN(C(CN3CCC3)c3cccc(F)c3F)CC2)c1-c1cn[nH]c1` (stereo not shown) [Example 124, 6-{4-[2-Azetidin-1-yl-1-(2,3-difluoro-phenyl)-ethyl]-piperazin-1-yl}-5-(1H-pyrazol-4-yl)-pyrimidin-4-ylamine] gave a half-inhibitory concentration (IC50) of 3400 nM.

Molecule `N#Cc1cccc([C@@H](CN2CCC2)N2CCN(c3ncnc(N)c3-c3ccc(F)cc3)CC2)c1` [Example 125, 3-((S)-1-{4-[6-Amino-5-(4-fluoro-phenyl)-pyrimidin-4-yl]-piperazin-1-yl}-2-azetidin-1-yl-ethyl)-benzonitrile] came in with an IC50 of 1200 nM.

Regarding `Nc1ncnc(N2CCN(C(CN3CCC3)c3cccc(Cl)c3Cl)CC2)c1-c1cn[nH]c1` (stereo not shown) [Example 126, 6-{4-[2-Azetidin-1-yl-1-(2,3-dichloro-phenyl)-ethyl]-piperazin-1-yl}-5-(1H-pyrazol-4-yl)-pyrimidin-4-ylamine], the IC50 was determined as 390 nM.

As for `Nc1ncnc(N2CCN(C(CN3CCC3)c3ccc(C(F)(F)F)c(F)c3)CC2)c1-c1cn[nH]c1` (stereo not shown) [Example 127, 6-{4-[2-Azetidin-1-yl-1-(3-fluoro-4-trifluoromethyl-phenyl)-ethyl]-piperazin-1-yl}-5-(1H-pyrazol-4-yl)-pyrimidin-4-ylamine], half-maximal inhibition (IC50) required 550 nM.

Molecule `CS(=O)(=O)c1ccc(C(CN2CCC2)N2CCN(c3ncnc(N)c3-c3ccc(F)cc3)CC2)cc1` (stereo not shown) [Example 128, 6-{4-[2-Azetidin-1-yl-1-(4-methanesulfonyl-phenyl)-ethyl]-piperazin-1-yl}-5-(4-fluoro-phenyl)-pyrimidin-4-ylamine] had an IC50 of 280 nM.

Molecule `N#Cc1cccc([C@H](CN2CCC2)N2CCN(c3ncnc(N)c3-c3ccc(F)cc3)CC2)c1` [Example 129, 3-((R)-1-{4-[6-Amino-5-(4-fluoro-phenyl)-pyrimidin-4-yl]-piperazin-1-yl}-2-azetidin-1-yl-ethyl)-benzonitrile] had an IC50 of 610 nM.

`COC(=O)Cn1cc(-c2c(N)ncnc2N2CCN(C(CN3CCC3)c3cccc(C#N)c3)CC2)cn1` (stereo not shown) [Example 130, [4-(4-Amino-6-{4-[2-azetidin-1-yl-1-(3-cyano-phenyl)-ethyl]-piperazin-1-yl}-pyrimidin-5-yl)-pyrazol-1-yl]-acetic acid methyl ester]: the IC50 was above 100000 nM.
